Consider 77 molecules from PubChem BioAssay AID489041 (Sanford-Burnham Center for Chemical Genomics, 2010).

The source made the active and inactive calls. The rule behind the calls is not given here.

The assay relates to HEK-293T NF-kB luciferase reporter counterscreen, luminescence. As to the kind of experiment: NF-kB reporter inhibition in HEK-293T, dose response, counter-screen for T-cell antigen receptor NF-kB inhibitors, HEK-293T cells, luminescence (AID 489041).
As for `CCCCCCCCCn1c2c(c(=N)c3c1CCC3)CCCC2`, the IC50 was 0.68 µM.

On to `CCCCCCCCCn1c2c(c(=N)c3c1CCC3)CCC2`, for which the IC50 is 0.98 µM.

For the molecule `COc1ccc(NC(=O)/C(Cl)=C(/Cl)S(=O)Cc2ccc(C)cc2)cn1` (configuration not stated), the IC50 is 5.5 µM.

For `COc1ccc(CCNc2cc(N3CCN(C(=O)c4ccccc4F)CC3)ccc2[N+](=O)[O-])cc1OC`, the IC50 was 0.68 µM.

In the case of `CCOc1ccccc1C1CC(=O)Nc2cc(C)c(C)cc21` (configuration not stated), the IC50 was 7.75 µM.

`CCCCN1/C(=C/c2ccc3ccccc3[n+]2CC)Sc2ccccc21`: the IC50 is 2.02 µM.

For the molecule `CCC(C)C(=O)N[C@@H](c1ccccc1)[C@@H](O)C(=O)O[C@H]1C[C@@]2(O)[C@@H](OC(=O)c3ccccc3)C3[C@](C)(C(=O)[C@H](OC(C)=O)C(=C1C)C2(C)C)[C@@H](O)C[C@H]1OC[C@@]31OC(C)=O` (some centres not stated), the IC50 is > 80 µM (inactive).

In the case of `CCCCCN1C=CC(=C2C(=O)c3ccccc3C2=O)C=C1`, the IC50 is 1.9 µM.

Consider `Cc1cc(NC(=O)COC(=O)c2ccc(S(=O)(=O)N3CCCc4ccccc43)cc2)no1`, for which the IC50 is 28.3 µM (inactive).

Turning to `COc1cc(C(=O)OCCc2cc3ccccc3c(=O)o2)cc(OC)c1OC`, the IC50 was 14.9 µM.

Consider `c1ccc2c(c1)CCN(c1ncnc3c1[nH]c1ccccc13)C2`, for which the IC50 is 1.43 µM.

For `CC#CC(=O)N1CCC(n2nccc2NC(=O)c2ccc3c(c2)OCO3)CC1`, the IC50 was > 80 µM (inactive).

For the molecule `CCCCOc1ccc(Br)cc1/C(C)=N/NC1=NCCN1`, the 50% inhibitory concentration (IC50) is 6.14 µM.

With `CN(C)c1ccc2c(c1)OC(N)=C(C#N)C2c1cccc(F)c1` (configuration not stated), the IC50 was 1.45 µM.

For `COc1cc(NS(=O)(=O)c2ccc(OC)c(C)c2C)c(OC)cc1Cl`, the IC50 is 5.28 µM.

In the case of `O=C(O)c1ccc(N/N=C/c2ccc3c(c2)OCO3)cc1`, the IC50 was 1.72 µM.

For the molecule `Cc1cccc(NS(=O)(=O)c2ccc(-c3cnc(C4CC4)o3)cc2)c1C`, the concentration for half-maximal inhibition (IC50) was 1.7 µM.

In the case of `Cn1nc(C(C)(C)C)cc1C(=O)NCc1cc(F)cc2c1OCOC2`, the IC50 was 2.47 µM.

For the molecule `COc1ccc2c(C)nc(Nc3nc(-c4ccccc4)cc(=O)[nH]3)nc2c1`, the IC50 was 1.54 µM.

As to `CCOC(=O)CSC1=C(C#N)C(c2ccc(C)s2)CC(=O)N1` (configuration not stated), the IC50 was 3.78 µM.

Take `Cc1ccc(-n2ncc3c(N4CCN(c5ccccc5)CC4)ncnc32)c(C)c1`: the IC50 is 3.24 µM.

Regarding `CCN(CC)c1ccc(-c2nn3c(-c4n[nH]c5c4CCC5)nnc3s2)cc1`, the IC50 is 2.16 µM.

Regarding `CCCCCCCCCCCCCCCC[n+]1ccc(/C=N/O)cc1`, the IC50 was 20.7 µM (inactive).

For `O=C(CNC(=O)c1ccco1)N=Nc1c(O)n(CCc2ccccc2)c2ccccc12`, the IC50 is 5.17 µM.

For the molecule `Cn1cc(C(=O)N/N=C/c2c(O)ccc3ccccc23)ccc1=O`, the IC50 was > 80 µM (inactive).

In the case of `CCn1nc(C)c(CNC(=O)c2ccc(OC3CCN(Cc4ccccn4)CC3)cc2)c1C`, the IC50 was 1.72 µM.

Regarding `O=C(Nc1ccc(F)cc1)c1ccc(CN2CCc3ccccc3C2)cc1`, the IC50 is 4.71 µM.

On to `CC[C@@]1(O)C(=O)OCc2c1cc1n(c2=O)Cc2cc3c(N)cccc3nc2-1`, for which the IC50 was 6.02 µM.

Regarding `COc1ccc(CS(=O)/C(Cl)=C(/Cl)C(=O)Nc2ccc(OC)nc2)cc1` (configuration not stated), the IC50 was 4.31 µM.

As for `CCOC(=O)c1[nH]c(C)c(C(=O)OCC(=O)NC(C)c2ccc(F)cc2)c1C` (configuration not stated), the IC50 was > 80 µM (inactive).

`COc1ccc(CCNc2nnc(Sc3nnnn3-c3ccccc3)s2)cc1OC`: the IC50 was 8.36 µM.

As for `CCCCOc1ccccc1C1CC(=O)NC2=C1C(=O)CCC2` (configuration not stated), the IC50 is 12.8 µM.

`COc1ccc(COC(=O)c2cc([N+](=O)[O-])ccc2N2CCOCC2)cc1F`: the IC50 was 2.29 µM.

With `CC1(C)C[C@H]2C=C(C=O)[C@]3(C=O)C[C@]3(C)[C@H]2C1`, the IC50 is 31.1 µM (inactive).

With `COc1cc(C2=NOC(C(=O)NCc3ccc(F)cc3)C2)cc(OC)c1OC` (configuration not stated), the IC50 was 6.34 µM.

With `Cc1cc(C)cc(NC(=O)c2cc(C)n(Cc3cccs3)c2C)c1`, the IC50 was > 80 µM (inactive).

As to `Cc1ccc(-c2cc3c(N=O)c4ccccc4c-3n[nH]2)cc1`, the IC50 is 0.88 µM.

As for `COc1cccc(/C=N/NC(=O)c2[nH]nc3c2CCc2ccccc2-3)c1O`, the IC50 is 0.21 µM.

Consider `COc1cc(-c2noc(C)c2C#Cc2ccsc2)cc(OC)c1OC`, for which the IC50 is 4.06 µM.

Regarding `CCOc1ccc2c(c1)OC(c1ccc(OC)cc1)(C(F)(F)F)NC2=O` (configuration not stated), the IC50 is 9.2 µM.

On to `COc1ccccc1NC(=O)C1=C(C)Nc2nc3ccccc3n2C1c1cccs1` (configuration not stated), for which the IC50 was 13.6 µM.

In the case of `O=S1(=O)C=C(Sc2nc3cc(Cl)ccc3o2)c2ccccc21`, the IC50 was 20.8 µM (inactive).

Take `Cc1ccc2nc(C)c(CN3CCN(c4ccc([N+](=O)[O-])cc4Cl)CC3)n2c1`: the IC50 is 6.8 µM.

For the molecule `CSc1ccc(COC(=O)c2cc([N+](=O)[O-])ccc2N2CCOCC2)cc1`, the concentration for half-maximal inhibition (IC50) was 1.7 µM.

As for `c1cc2c(cc1C1=NNC(=NC3CC3)SC1)OCCO2`, the IC50 is 2.33 µM.

Turning to `CCOc1ccc(-c2[nH]ncc2-c2ccc(OC)c(OC)c2)c(O)c1`, the concentration for half-maximal inhibition (IC50) was 10.4 µM.

`Cc1cccc(N=Nc2ccc(O)c3ncccc23)c1`: the IC50 was > 80 µM (inactive).

Regarding `Cc1ccc(C(=O)Nc2cnc3ccccc3c2)cc1`, the IC50 was 0.83 µM.

In the case of `O=C(Nc1nc(-c2ccccn2)cs1)c1ccc(Cl)s1`, the IC50 was 4.44 µM.

As to `CCC(=O)NC(c1cccs1)c1ccc2cccnc2c1O` (configuration not stated), the IC50 is 1.61 µM.

Turning to `C[C@]12CC[C@H](O)C[C@H]1CC[C@@H]1[C@@H]2C[C@@H](O)[C@]2(C)[C@@H](C3=CC(=O)OC3)CC[C@]12O`, the IC50 is 0.58 µM.

For `COCCCNC(=O)C(=O)Nc1ccc2c(c1)N(S(=O)(=O)c1cccs1)CCC2`, the IC50 is 11.7 µM.

Turning to `Cc1ccc(/C=C/c2ccc(N(C)C)cc2)[n+](C)c1`, the IC50 was 2.7 µM.

For the molecule `CN(C)c1ccc(-c2nn3c(-c4ccccc4Cl)nnc3s2)cc1`, the IC50 is 19.8 µM.

Consider `Cc1ccc2[nH]c3c(c2c1)CCCC3NC(=O)CCl` (configuration not stated), for which the IC50 was 7.68 µM.

`COC(=O)Nc1ccc(S(=O)(=O)N2c3ccccc3CCC2C)cc1` (configuration not stated): the IC50 is 13.1 µM.

Take `Cc1ccc(C(=O)Nc2cccc(C(=O)O)c2)cc1`: the IC50 was 4.1 µM.

As for `COc1ccc(C[C@H](N)C(=O)N[C@H]2[C@@H](O)[C@H](n3cnc4c(N(C)C)ncnc43)O[C@@H]2CO)cc1`, the IC50 is 2.64 µM.

On to `C=C1C(=O)O[C@H]2C[C@@H](C)[C@@H]3C=CC(=O)[C@@]3(C)C[C@H]12`, for which the IC50 is 5.84 µM.

Consider `COc1cc(C2C3=C(Nc4ncnn42)c2ccccc2CC3)cc(OC)c1OC` (configuration not stated), for which the IC50 is 0.83 µM.

Turning to `COc1ccccc1CNS(=O)(=O)c1ccc(-c2cc(C)no2)cc1`, the IC50 was 8.48 µM.

For `Cc1cc(O)c2c(c1O)C(=O)[C@]13C(=C2O)C(=O)[C@@H]2[C@@H](O)[C@H]1[C@@H]1[C@H](O)[C@H]3C(=O)C3=C(O)c4c(O)cc(C)c(O)c4C(=O)[C@]312`, the IC50 is 11.4 µM.

As to `CCCCCc1ccc(OCCCC[n+]2ccc(C)cc2)c(CCCCC)c1`, the IC50 is 5.84 µM.

Regarding `CC1=CC(C)(C)N(S(=O)(=O)c2ccc(C)cc2)c2cc(C)ccc21`, the IC50 was 2.17 µM.

Take `O=C(Nc1nc2ccc(S(=O)(=O)N3CCCC3)cc2s1)C1CCCCC1`: the concentration for half-maximal inhibition (IC50) is 2.8 µM.

With `CCOC(=O)COc1cccc2c(=O)n(CC(=O)NCc3ccccc3)ccc12`, the IC50 was 0.63 µM.

Consider `Clc1ccc(CSc2nncn2-c2ccc3c(c2)OCCO3)cc1`, for which the IC50 is 13.8 µM.

As to `Cc1ccc(COC(=O)c2cc([N+](=O)[O-])ccc2N2CCOCC2)cc1`, the IC50 is 3.3 µM.

With `Cc1c(C(=O)OCC(C)C)[nH]c2c1C(=O)CC(c1cccs1)C2` (configuration not stated), the IC50 is 0.41 µM.

In the case of `Cc1cccc(N2CCN(C(=O)c3c(-c4ccccc4Cl)noc3C)CC2)c1C`, the IC50 was 6.03 µM.

As for `CCOC(=O)C(C)Oc1cccc2c(=O)n(CC(=O)NCc3ccc4c(c3)OCO4)ccc12` (configuration not stated), the IC50 is 2.23 µM.

For `CC(=O)N1c2ccc(S(=O)(=O)N3CCC(C(=O)Nc4cccc(C)n4)CC3)cc2CC1C` (configuration not stated), the IC50 was 5.57 µM.

As for `Cc1c(C(=O)OCc2ccccc2)[nH]c2c1C(=O)CC(c1ccco1)C2` (configuration not stated), the IC50 was 10.1 µM.

On to `CCCCCC(=O)N[C@@H](c1ccccc1)[C@@H](O)C(=O)O[C@H]1C[C@@]2(O)[C@@H](OC(=O)c3ccccc3)C3[C@](C)(C(=O)[C@H](OC(C)=O)C(=C1C)C2(C)C)[C@@H](O)C[C@H]1OC[C@@]31OC(C)=O` (some centres not stated), for which the IC50 is > 80 µM (inactive).

`COC(=O)c1c(NC(=O)c2ccc([N+](=O)[O-])o2)sc2c1CCN(C(C)C)C2`: the IC50 is 51.8 µM (inactive).

As for `Cc1ccc2oc(/N=C(\N)NC(=O)C(C)(C)C)nc2c1`, the IC50 is less than 0.16 µM.

Turning to `CCOc1cccc(/C=N/Nc2ccc(S(=O)(=O)N(CC)CC)cn2)c1O`, the IC50 was 0.31 µM.

By IC50 is commonly meant the midpoint of a concentration-inhibition curve.
